Experiments:
[1] = system: biofilm of a mixture of aerobic populations from more than 30 cooling systems in North America; assay: Biofilm growth inhibition test, similar to the MBEC assay; INT or crystal violet stain of biofilm on well walls; type: cell-based; set-up: key: “−” indicates no detectable growth at the end of test; “+” indicates detectable growth; “+/−” partial growth; “++” more growth; settings: 40-48 hours incubation at 32-35° C.
From the text: The microbial and biofilm inhibition test protocols used in this example is similar to the MBEC (Minimum Biofilm Eradication Concentration) assay and American Society for Testing and Materials (ASTM) MBEC-[…]-12 (2011) assay, both of which are commonly used. This test protocol can be used laboratory and field applications. The test protocol can be conducted in a 12-well or 96-well tissue culture plate format. The 12-well plate format is mainly for lab based and detailed screening/studies. The 96-well format is developed mainly for field applications. The test protocol starts with the preparation of the water sample to be tested by mixing the water from different water systems or artificial water with known bacterial populations with limited nutrient (16% of medium, 2% (w/w) casitone, 0.8% (w/w) yeast extracts, 4% (v/v) glycerol, 4 ppm FeCl3) and the solution of the treatment chemical. This step usually generates a series of the treated water samples with different concentrations for the treatment chemical(s) (from about 0.8 ppm to 1,000 ppm). Next, 200 μL of each treated water samples were transferred to a 96 well plate or 12 well plate. Usually, six replicates would be tested for each concentration of the treatment chemical(s) and controls with no treatment chemical and no bacterial were also placed in the plate(s). After the treated samples were properly plated, the plate(s) are placed on a slow rotary shaker in a humidity-controlled environment on at 32-35° C. for 40-48 hours of incubation. After this step, the bacterial cultures in the plate(s) were carefully poured out and 250 ul of dyes (350 ppm 2-(4-Iodophenyl)-3-(4-nitrophenyl)-5-phenyltetrazolium chloride (INT) or 2,000 ppm crystal violent (CV) for biofilm matrix stain) was added to each well for activity stain in biofilms on well walls. After 10-15 minutes, pour out the dye and gently wash the wells with deionized water until no colored water is running of the plate(s). After drying the plate(s), each well was inspected visually for staining and results are recorded. Alternatively, use 300 uL ethanol to extract CV dyes and transfer 200 uL of ethanol to a new plate for microtiter plate recording at 590 nm. […] The bacteria used in this example for microbial and/or biofilm growth inhibition test protocols comprised a mixture of aerobic populations from more than 30 cooling systems in North America. The specific species were not specifically identified. Those species were grown on […] agar.

[2] = system: mixture of aerobic populations from more than 30 cooling systems in North America; assay: Bacterial growth inhibition test, similar to the MBEC assay; growth recorded visually or by turbidity at 650 nm; type: cell-based; set-up: key: “−” indicates no detectable growth at the end of test; “+” indicates detectable growth; “+/−” partial growth; “++” more growth; settings: 40-48 hours incubation at 32-35° C.
From the text: The microbial and biofilm inhibition test protocols used in this example is similar to the MBEC (Minimum Biofilm Eradication Concentration) assay and American Society for Testing and Materials (ASTM) MBEC-[…]-12 (2011) assay, both of which are commonly used. This test protocol can be used laboratory and field applications. The test protocol can be conducted in a 12-well or 96-well tissue culture plate format. The 12-well plate format is mainly for lab based and detailed screening/studies. The 96-well format is developed mainly for field applications. The test protocol starts with the preparation of the water sample to be tested by mixing the water from different water systems or artificial water with known bacterial populations with limited nutrient (16% of medium, 2% (w/w) casitone, 0.8% (w/w) yeast extracts, 4% (v/v) glycerol, 4 ppm FeCl3) and the solution of the treatment chemical. This step usually generates a series of the treated water samples with different concentrations for the treatment chemical(s) (from about 0.8 ppm to 1,000 ppm). Next, 200 μL of each treated water samples were transferred to a 96 well plate or 12 well plate. Usually, six replicates would be tested for each concentration of the treatment chemical(s) and controls with no treatment chemical and no bacterial were also placed in the plate(s). After the treated samples were properly plated, the plate(s) are placed on a slow rotary shaker in a humidity-controlled environment on at 32-35° C. for 40-48 hours of incubation. After the incubation, the bacterial growth in each well of the plate was recorded either visually or by a microplate turbidity reader at 650 nm to determine the minimum bacterial growth inhibition concentration for a treatment chemical. The bacteria used in this example for microbial and/or biofilm growth inhibition test protocols comprised a mixture of aerobic populations from more than 30 cooling systems in North America. The specific species were not specifically identified. Those species were grown on […] agar.

## 3,3′-((3,3′-(octylazanediyl)bis(propanoyl))bis(azanediyl))bis(N,N,N-trimethylpropan-1-aminium) chloride [Compound 4]
[1]; test concentration 0.8 ppm
  Biofilm growth: +
[1]; test concentration 1.5 ppm
  Biofilm growth: +
[1]; test concentration 3 ppm
  Biofilm growth: +/−
[1]; test concentration 6 ppm
  Biofilm growth: −
[1]; test concentration 12 ppm
  Biofilm growth: −
[1]; test concentration 25 ppm
  Biofilm growth: −
[1]; test concentration 50 ppm
  Biofilm growth: −
[1]; test concentration 63 ppm
  Biofilm growth: −
[1]; test concentration 125 ppm
  Biofilm growth: −
[1]; test concentration 250 ppm
  Biofilm growth: −
[1]; test concentration 500 ppm
  Biofilm growth: −
[1]; test concentration 1000 ppm
  Biofilm growth: −
[2]; test concentration 0.8 ppm
  Bacterial growth: +
[2]; test concentration 1.5 ppm
  Bacterial growth: +
[2]; test concentration 3 ppm
  Bacterial growth: +
[2]; test concentration 6 ppm
  Bacterial growth: ++
[2]; test concentration 12 ppm
  Bacterial growth: +/−
[2]; test concentration 25 ppm
  Bacterial growth: −
[2]; test concentration 50 ppm
  Bacterial growth: −
[2]; test concentration 63 ppm
  Bacterial growth: −
[2]; test concentration 125 ppm
  Bacterial growth: −
[2]; test concentration 250 ppm
  Bacterial growth: −
[2]; test concentration 500 ppm
  Bacterial growth: −
[2]; test concentration 1000 ppm
  Bacterial growth: −

## CCCCCCCCCCCCN(CCC(=O)NCCC[N+](C)(C)C)CCC(=O)NCCC[N+](C)(C)C.[Cl-].[Cl-] [Compound 1, 3,3′-((3,3′-(dodecylazanediyl)bis(propanoyl))bis(azanediyl))bis(N,N,N-trimethylpropan-1-aminium) chloride]
[1]; test concentration 0.8 ppm
  Biofilm growth: +
[1]; test concentration 1.5 ppm
  Biofilm growth: +
[1]; test concentration 3 ppm
  Biofilm growth: +
[1]; test concentration 6 ppm
  Biofilm growth: +
[1]; test concentration 12 ppm
  Biofilm growth: +
[1]; test concentration 25 ppm
  Biofilm growth: +
[1]; test concentration 50 ppm
  Biofilm growth: +
[1]; test concentration 63 ppm
  Biofilm growth: +
[1]; test concentration 125 ppm
  Biofilm growth: +
[1]; test concentration 250 ppm
  Biofilm growth: +/−
[1]; test concentration 500 ppm
  Biofilm growth: −
[1]; test concentration 1000 ppm
  Biofilm growth: −
[2]; test concentration 0.8 ppm
  Bacterial growth: +
[2]; test concentration 1.5 ppm
  Bacterial growth: +
[2]; test concentration 3 ppm
  Bacterial growth: +
[2]; test concentration 6 ppm
  Bacterial growth: +
[2]; test concentration 12 ppm
  Bacterial growth: +
[2]; test concentration 25 ppm
  Bacterial growth: +
[2]; test concentration 50 ppm
  Bacterial growth: +
[2]; test concentration 63 ppm
  Bacterial growth: +
[2]; test concentration 125 ppm
  Bacterial growth: +
[2]; test concentration 250 ppm
  Bacterial growth: +
[2]; test concentration 500 ppm
  Bacterial growth: +
[2]; test concentration 1000 ppm
  Bacterial growth: −

## CCCCCCCCCCCCCCCCN(CCC(=O)NCCC[N+](C)(C)C)CCC(=O)NCCC[N+](C)(C)C.[Cl-].[Cl-] [Compound 2, 3,3′-((3,3′-(hexadecylazanediyl)bis(propanoyl))bis(azanediyl))bis(N,N,N-trimethylpropan-1-aminium) chloride]
[1]; test concentration 0.8 ppm
  Biofilm growth: +
[1]; test concentration 1.5 ppm
  Biofilm growth: +
[1]; test concentration 3 ppm
  Biofilm growth: +
[1]; test concentration 6 ppm
  Biofilm growth: +
[1]; test concentration 12 ppm
  Biofilm growth: +
[1]; test concentration 25 ppm
  Biofilm growth: +/−
[1]; test concentration 50 ppm
  Biofilm growth: −
[1]; test concentration 63 ppm
  Biofilm growth: −
[1]; test concentration 125 ppm
  Biofilm growth: −
[1]; test concentration 250 ppm
  Biofilm growth: −
[1]; test concentration 500 ppm
  Biofilm growth: −
[1]; test concentration 1000 ppm
  Biofilm growth: −
[2]; test concentration 0.8 ppm
  Bacterial growth: +
[2]; test concentration 1.5 ppm
  Bacterial growth: +
[2]; test concentration 3 ppm
  Bacterial growth: +
[2]; test concentration 6 ppm
  Bacterial growth: +
[2]; test concentration 12 ppm
  Bacterial growth: +
[2]; test concentration 25 ppm
  Bacterial growth: +
[2]; test concentration 50 ppm
  Bacterial growth: +/−
[2]; test concentration 63 ppm
  Bacterial growth: −
[2]; test concentration 125 ppm
  Bacterial growth: −
[2]; test concentration 250 ppm
  Bacterial growth: −
[2]; test concentration 500 ppm
  Bacterial growth: −
[2]; test concentration 1000 ppm
  Bacterial growth: −

## CCCCCCCCC=CCCCCCCCCN(CCC(=O)NCCC[N+](C)(C)C)CCC(=O)NCCC[N+](C)(C)C.[Cl-].[Cl-] [Compound 3, 3,3′-((3,3′-(octadec-9-en-1-ylazanediyl)bis(propanoyl))bis(azanediyl)) bis(N,N,N-trimethylpropan-1-aminium) chloride]
[1]; test concentration 0.8 ppm
  Biofilm growth: +
[1]; test concentration 1.5 ppm
  Biofilm growth: +
[1]; test concentration 3 ppm
  Biofilm growth: +
[1]; test concentration 6 ppm
  Biofilm growth: +
[1]; test concentration 12 ppm
  Biofilm growth: +/−
[1]; test concentration 25 ppm
  Biofilm growth: +/−
[1]; test concentration 50 ppm
  Biofilm growth: +/−
[1]; test concentration 63 ppm
  Biofilm growth: −
[1]; test concentration 125 ppm
  Biofilm growth: −
[1]; test concentration 250 ppm
  Biofilm growth: −
[1]; test concentration 500 ppm
  Biofilm growth: −
[1]; test concentration 1000 ppm
  Biofilm growth: _
[2]; test concentration 0.8 ppm
  Bacterial growth: +
[2]; test concentration 1.5 ppm
  Bacterial growth: +
[2]; test concentration 3 ppm
  Bacterial growth: +
[2]; test concentration 6 ppm
  Bacterial growth: +
[2]; test concentration 12 ppm
  Bacterial growth: +
[2]; test concentration 25 ppm
  Bacterial growth: +
[2]; test concentration 50 ppm
  Bacterial growth: +/−
[2]; test concentration 63 ppm
  Bacterial growth: +/−
[2]; test concentration 125 ppm
  Bacterial growth: −
[2]; test concentration 250 ppm
  Bacterial growth: −
[2]; test concentration 500 ppm
  Bacterial growth: −
[2]; test concentration 1000 ppm
  Bacterial growth: −
